Source: ChEMBL document CHEMBL1154247, “Biscarpamontamines A and B, an aspidosperma-iboga bisindole alkaloid and an aspidosperma-aspidosperma bisindole alkaloid, from Tabernaemontana sphaerocarpa” (J Nat Prod, 2009)

Tests used:
Format in all cases: functional, cell-based
HL-60 = assay: Cytotoxicity against human HL60 cells after 48 hrs by MTT assay; conditions: HL-60, 48 h
RPMI-8226 = assay: Cytotoxicity against human RPMI8226 cells after 48 hrs by MTT assay; conditions: RPMI-8226, 48 h
NCI-H226 = assay: Cytotoxicity against human NCI-H226 cells after 48 hrs by MTT assay; conditions: NCI-H226, 48 h
MCF7 = assay: Cytotoxicity against human MCF7 cells after 48 hrs by MTT assay; conditions: MCF7, 48 h
HCT-116 = assay: Cytotoxicity against human HCT116 cells after 48 hrs by MTT assay; conditions: HCT-116, 48 h

Row | SMILES | IC50 (HL-60) [µM] | IC50 (RPMI-8226) [µM] | IC50 (NCI-H226) [µM] | IC50 (MCF7) [µM] | IC50 (HCT-116) [µM]
1 | CC[C@]1(O)C[C@H]2CN(CCc3c([nH]c4ccccc34)[C@@](C(=O)OC)(c3cc4c(cc3OC)N(C=O)[C@H]3[C@@](O)(C(=O)OC)[C@H](OC(C)=O)[C@]5(CC)C=CCN6CC[C@]43[C@@H]65)C2)C1 [VINCRISTINE] | 0.00087 |  |  |  | 
2 | CC[C@H]1C[C@H]2C[C@@]3(C(=O)OC)c4c(c5cc(OC)ccc5n4CC4=C[C@@]5(CCO)CC(C(=O)OC)=C6Nc7ccccc7[C@@]67CCN(C4)[C@@H]57)CCN([C@@H]2O)[C@@H]13 [BISCARPAMONTAMINE A] | 12.2 | 27.9 | 16.9 | 25.3 | 14
3 | CC[C@]1(O)C[C@@H]2CN(CCc3c([nH]c4ccccc34)[C@@](C(=O)OC)(c3cc4c(cc3OC)N(C)[C@H]3[C@@](O)(C(=O)OC)[C@H](OC(C)=O)[C@]5(CC)C=CCN6CC[C@]43[C@@H]65)C2)C1 [VINBLASTINE] | 0.0016 |  |  |  | 
